Read-outs that look alike come from different tables or passages of the source. Some results are limits rather than exact numbers.

In one series the test system is MT-4 cells. Kind of series: Cytotoxicity in mock-infected MT-4 cells (MTT). It is filed as cell-based. The procedure: (§1) A rapid and automated assay procedure was used for the in vitro evaluation of anti-HIV agents. An HTLV-1 transformed T4-cell line MT-4, which was previously shown to be highly susceptible to and permissive for HIV infection, served as the target cell line. Inhibition of the HIV-induced cytopathogenic effect was used as the end point. The viability of both HIV-and mock-infected cells was assessed spectrophotometrically via in situ reduction of 3-(4,5-dimethylthiazol-2-yl)-2,5-diphenyltetrazolium bromide (MTT). […] The percent protection achieved by the compound in HIV-infected cells was calculated by the following formula: […]
(§2) whereby (ODT)HIV is the optical density measured with a given concentration of the test compound in HIV-infected cells; (ODC)HIV is the optical density measured for the control untreated HIV-infected cells; (ODC)MOCK is the optical density measured for the control untreated mock-infected cells; all optical density values were determined at 540 nm. […] The ratio of CC50 to EC50 was defined as the selectivity index (SI).

Series [1] has as its target T1, LEDGF-integrase interaction (His6-tagged HIV-1 integrase, flag-LEDGF/p75) (Human immunodeficiency virus type 1 group M subtype B, UniProt P04585).
T1 construct: His6-tagged HIV-1 integrase; made in house
Briefly: AlphaScreen assay of LEDGF-integrase interaction inhibition. It is filed as binding. Conditions: compound at 100 μM. The procedure: The AlphaScreen assay was performed according to the manufacturer's protocol (Perkin Elmer, Benelux). Reactions were performed in 25 μl final volume in 384-well Optiwell™ microtiter plates (Perkin Elmer). The reaction buffer contained 25 mM Tris-HCl (pH 7.4), 150 mM NaCl, 1 mM MgCl2, 0.01% (v/v) Tween-20 and 0.1% (w/v) bovine serum albumin. His6-tagged integrase (300 nM final concentration) was incubated with the compounds for 30 min at 4° C. The compounds were added at varying concentrations spanning a wide range from 0.1 up to 100 μM. Afterwards 100 nM flag-LEDGF/p75 was added and incubation was prolonged for an additional hour at 4° C. Subsequently 5 μl of Ni-chelate—coated acceptor beads and 5 μl anti-flag donor beads were added to a final concentration of 20 μg/ml of both beads. Proteins and beads were incubated for 1 h at 30° C. in order to allow association to occur. Exposure of the reaction to direct light was omitted as much as possible and the emission of light from the acceptor beads was measured in the EnVision plate reader (Perkin Elmer, Benelux) and analyzed using the EnVision manager software. IN/DNA binding was analyzed in a similar setting using His6-tagged integrase (1 μM final concentration) and an oligodeoxynucleotide mimicking the IN ELISA oligonucleotide substrate (30 nM final concentration). Counterscreens with JPO2 or PogZ, respectively, were essentially performed as described previously. Expression and purification of recombinant proteins: His6-tagged HIV-1 integrase, 3xflag-tagged LEDGF/p75, MBP-JPO2 and MBP-PogZ were purified for AlphaScreen applications as described previously.

A short description of series [2]: Cytotoxicity in mock-infected MT-4 cells (MTT). It is filed as cell-based. As to conditions: human, mock-infected MT-4 cells. The procedure:
as §1, §2

For the next series, the system named is HIV. Briefly: microbe, parasite or virus in culture. It is filed as cell-based. The protocol:
A rapid and automated assay procedure was used for the in vitro evaluation of anti-HIV agents. An HTLV-1 transformed T4-cell line MT-4, which was previously shown to be highly susceptible to and permissive for HIV infection, served as the target cell line. Inhibition of the HIV-induced cytopathogenic effect was used as the end point. The viability of both HIV-and mock-infected cells was assessed spectrophotometrically via in situ reduction of 3-(4,5-dimethylthiazol-2-yl)-2,5-diphenyltetrazolium bromide (MTT). The 50% cytotoxic concentration (CC50 in μg/ml) was defined as the concentration of compound that reduced the absorbance of the mock-infected control sample by 50%. The percent protection achieved by the compound in HIV-infected cells was calculated by the following formula: […]
whereby (ODT)HIV is the optical density measured with a given concentration of the test compound in HIV-infected cells; (ODC)HIV is the optical density measured for the control untreated HIV-infected cells; (ODC)MOCK is the optical density measured for the control untreated mock-infected cells; all optical density values were determined at 540 nm. The dose achieving 50% protection according to the above formula was defined as the 50% inhibitory concentration (EC50 in μg/ml or μM). The ratio of CC50 to EC50 was defined as the selectivity index (SI). […] Examples of inhibition of cell proliferation by particular compounds of the invention can be found by looking at the respective CC50 values in the MT-4 cell line. Cells: MT-4 cells (Miyoshi et al., 1982) were grown and maintained in RPMI 1640medium supplemented with 10% heat-inactivated fetal calf serum, 2 mM 1-glutamine, 0.1% sodium bicarbonate, and 20æg of gentamicin per ml.
Viruses: The HIV-1 (NL4.3) strain (Adachi et al., 1986) is a molecular clone obtained from the National Institutes of Health (Bethesda, Md.). The HIV-2 (ROD) (Barr, -Sinoussi et al., 1983) stock was obtained from culture supernatant of HIV-2 infected cell lines.

Where [3] appears, read: mock-infected MT-4 cells, read-out: CC50.
[4] abbreviates: Human immunodeficiency virus 1, MT4, 50% protection of HIV-infected MT-4 cells, read-out: EC50.
[5] abbreviates: 50% protection of HIV-infected MT-4 cells, read-out: EC50.
The mark [6] stands for this setting: Human immunodeficiency virus 1, MT4.

Turning to “2-[2-tert-butyl-7-(1,2-dihydroacenaphthylen-5-yl)-5-methylpyrazolo[1,5-a]pyrimidin-6-yl]acetic acid [CPD-111]”, the CC50 in the series on MT-4 cells (setting [3]) was 50 µM. The “Alpha screen % (100 μM)” value in series [1] stood at 89%.

In series [2], `CCCC(C(=O)O)c1c(C)nc2cc(C(C)(C)C)nn2c1-c1ccc(C(F)(F)F)cc1` (stereo not drawn) [CPD-90, 2-(2-tert-butyl-5-methyl-7-(4-trifluoromethylphenyl)pyrazolo[1,5-a]pyrimidin-6-yl)pentanoic acid] registered a CC50 of 22 µM. Moreover, in series [1], the “Alpha screen % (100 μM)” value was 70%. Moreover, the EC50 in the series on HIV (setting [4]) came to 6.15 µM.

Regarding `CCCC(C(=O)O)c1c(C)nc2cc(C(C)(C)C)nn2c1-c1ccc2c(c1)OCCCO2` (stereo not drawn) [CPD-72, 2-(2-tert-butyl-7-(3,4-dihydro-2H-benzo[b][1,4]dioxepin-7-yl)-5-methylpyrazolo[1,5-a]pyrimidin-6-yl)pentanoic acid], in series [2], the CC50 is more than 125 µM. Also, the “Alpha screen % (100 μM)” value in series [1] turned out to be 93%. Besides, in the series with HIV (setting [4]), the EC50 amounted to 22.6 µM.

`CCCC(C(=O)O)c1c(C)nc2cc(C(C)(C)C)nn2c1-c1ccc2occc2c1` (stereo not drawn) [CPD-66, 2-(7-(benzofuran-5-yl)-2-tert-butyl-5-methylpyrazolo[1,5-a]pyrimidin-6-yl)pentanoic acid]: the midpoint of cytotoxicity in series [2], the CC50, lay at 99 µM. Also, the “Alpha screen % (100 μM)” value in series [1] is 92%. Besides, the EC50 with HIV (setting [4]) was 10.5 µM.

Compound `CCCC(C(=O)O)c1c(C)nc2cc(C(C)(C)C)nn2c1-c1ccc(C)c(C)c1` (stereo not drawn) [CPD-70, 2-(2-tert-butyl-7-(3,4-dimethylphenyl)-5-methylpyrazolo[1,5-a]pyrimidin-6-yl)pentanoic acid] displayed a CC50 in series [2] of more than 125 µM. The “Alpha screen % (100 μM)” value in series [1] is 93%. Also, the EC50 in the series on HIV (setting [4]) was 72.1 µM.

For the compound `CCCC(C(=O)O)c1c(C)nc2c(Br)c(C(C)(C)C)nn2c1-c1ccc(C)cc1` (stereo not drawn) [CPD-60, 2-(3-bromo-2-tert-butyl-5-methyl-7-p-tolylpyrazolo[1,5-a]pyrimidin-6-yl)pentanoic acid], the midpoint of cytotoxicity in series [2], the CC50, lay at 56.3 µM. Also, in series [1], the “Alpha screen % (100 μM)” value is reported as 92%. Besides, in the series on HIV (setting [4]), the EC50 is 2.39 µM.

In turn, `CCCC(C(=O)O)c1c(C)nc2cc(C(C)(C)C)nn2c1-c1ccc2c(c1)CCO2` (stereo not drawn) [CPD-68, 2-(2-tert-butyl-7-(2,3-dihydrobenzofuran-5-yl)-5-methylpyrazolo[1,5-a]pyrimidin-6-yl)pentanoic acid] showed a CC50 in series [2] of 101 µM. In addition, the “Alpha screen % (100 μM)” value in series [1] was found to be 93%. Moreover, in the series with HIV (setting [4]), the EC50 is 6.42 µM.

In the case of “2-[2-tert-butyl-7-(1,2-dihydroacenaphthylen-5-yl)-5-methylpyrazolo[1,5-a]pyrimidin-6-yl]acetic acid [CPD-112]”, in the series on MT-4 cells (setting [3]), the CC50 turned out to be 59 µM. Moreover, the “Alpha screen % (100 μM)” value in series [1] is 93%.

As to `CCCC(C(=O)O)c1c(C)nc2cc(-c3ccco3)nn2c1-c1ccc(C)cc1` (stereo not drawn) [CPD-78, 2-(2-(furan-2-yl)-5-methyl-7-p-tolylpyrazolo[1,5-a]pyrimidin-6-yl)pentanoic acid], in series [2], the midpoint of cytotoxicity, the CC50, lay at 127 µM. For the same compound, the “Alpha screen % (100 μM)” value in series [1] is reported as 83%. The EC50 in the series with HIV (setting [4]) amounted to 21.2 µM.

Regarding `CCCC(C(=O)O)c1c(C)nc2cc(C(C)(C)C)nn2c1-c1ccc(C)cc1F` (stereo not drawn) [CPD-80, 2-(2-tert-butyl-7-(2-fluoro-4-methylphenyl)-5-methylpyrazolo[1,5-a]pyrimidin-6-yl)pentanoic acid], in series [2], the midpoint of cytotoxicity, the CC50, lay at 192 µM. For the same compound, the “Alpha screen % (100 μM)” value in series [1] stood at 75%. In the series with HIV (setting [4]), the concentration for a half-maximal effect (EC50) is 4.08 µM.

In turn, “Ethyl 2-(2-benzyl-5-methyl-7-p-tolyl-[1,2,4]-triazolo[1,5-a]pyrimidin-6-yl)pentanoate [CPD-123]” gave a CC50 in the series on MT-4 cells of 126 µM. In the series with HIV (setting [5]), the EC50 is 26.1 µM.

In series [2], `CCCC(C(=O)O)c1c(C)nc2cc(C(C)(C)C)nn2c1-c1ccc(C(C)C)cc1` (stereo not drawn) [CPD-89, 2-(2-tert-butyl-5-methyl-7-(4-iso-propylphenyl)pyrazolo[1,5-a]pyrimidin-6-yl)pentanoic acid] yielded a CC50 of 139 µM. Moreover, the “Alpha screen % (100 μM)” value in series [1] came to 89%. Moreover, a half-maximal effect in the series with HIV (setting [6]) (EC50) was put at 24 µM.

With `Cc1ccc(-c2c(C(CCCC(F)(F)F)C(=O)O)c(C)nc3cc(C(C)(C)C)nn23)cc1` (stereo not drawn) [CPD-81, 2-(2-tert-butyl-7-p-tolyl-5-methylpyrazolo[1,5-a]pyrimidin-6-yl)-6,6,6-trifluorohexanoic acid], it took 56 µM to reach half-maximal cytotoxicity in series [2] (CC50). In series [1], the “Alpha screen % (100 μM)” value is recorded as 65%. The EC50 with HIV (setting [4]) is 16.4 µM.

In turn, `CCCC(C(=O)O)c1c(C)nc2cc(C(C)(C)C)nn2c1-c1ccccc1` (stereo not drawn) [CPD-58, 2-(2-tert-butyl-5-methyl-7-phenylpyrazolo[1,5-a]pyrimidin-6-yl)pentanoic acid] returned a CC50 in series [2] of 121 µM. Further, in series [1], the “Alpha screen % (100 μM)” value was 77%. Besides, the EC50 with HIV (setting [4]) turned out to be 27.3 µM.

On to “2-[2-tert-butyl-7-(2-hydroxy-4-methylphenyl)-5-methylpyrazolo[1,5-a]pyrimidin-6-yl]acetic acid [CPD-117]”, for which, in the series on MT-4 cells (setting [3]), the CC50 worked out at 116 µM. Moreover, the “Alpha screen % (100 μM)” value in series [1] worked out at 95%. Also, the EC50 with HIV (setting [5]) is 2.06 µM.

Consider `CCCC(C(=O)O)c1c(C)nc2cc(C(C)(C)C)nn2c1-c1ccc2cc[nH]c2c1` (stereo not drawn) [CPD-65, 2-(2-tert-butyl-7-(1H-indol-6-yl)-5-methylpyrazolo[1,5-a]pyrimidin-6-yl)pentanoic acid], for which, in series [2], the CC50 was 46.5 µM. Further, in series [1], the “Alpha screen % (100 μM)” value is 30%. Also, in the series on HIV (setting [6]), the EC50 amounted to 5.69 µM.

`CCCC(C(=O)O)c1c(C)nc2cc(C(C)(C)C)nn2c1-c1ccc2sccc2c1` (stereo not drawn) [CPD-67, 2-(7-(benzo[b]thiophen-5-yl)-2-tert-butyl-5-methylpyrazolo[1,5-a]pyrimidin-6-yl)pentanoic acid] returned a CC50 in series [2] of 70 µM. In addition, in series [1], the “Alpha screen % (100 μM)” value worked out at 93%. The half-maximal effective concentration (EC50) with HIV (setting [4]) was 2.94 µM.

Usually CC50 stands for the concentration giving 50% cytotoxicity. The term EC50 denotes the concentration at which the effect is half-maximal.

Values taken from US20120316161A1, “NOVEL ANTIVIRAL COMPOUNDS” (KATHOLIEKE UNIVERSITEIT LEUVEN, priority 2009, published 2012).
